# Assay results: patent US8008354B2, “Death receptor sensitizing compounds and methods of use therefor” (Burnham Institute for Medical Research, priority 2006, dated 2011)
# Legend:
# [1] = test system: caspase 8; assay: Caspase activation in PPC-1 cells (FITC-labeled peptides, caspase 8 immunoblot); assay type: cell-based, human; conditions: 60 μM
# Description: FIG. 15. 5809354 sensitizes cells to anoikis through a caspase 8 dependent mechanism. (A) PPC-1 cells (5×10^4) were cultured under suspension conditions overnight and then treated with 5809354 in the presence or absence of the pan-caspase inhibitor z-VAD-fink (100 μM). Thirty hours after incubation, anoikis was determined by flow cytometry to detect cell surface annexin V expression and PI uptake. Data represents the mean±SEM percent of viable cells or colonies compared to untreated controls. (B) PPC-1 cells (5×10^4) were cultured in suspension conditions overnight and then treated with 5809354 (60 μM). At increasing times after treatment, caspase activation was detected with FITC-labeled peptides that bind preferentially and irreversibly to caspase 3/7, 8, or 9. Caspase activation was monitored by flow cytometry to quantify the percentage of fluorescently labeled cells. […] At increasing times after incubation, total cellular protein was isolated and analyzed by SDS-PAGE immunoblotting using anti-caspase 8 and anti-actin antibodies. * indicates cleaved caspase 8. […] Thirty hours after incubation, apoptosis was measured by cell surface annexin V expression and PI uptake. […] Ten hours after incubation, cell viability was measured using the MTS assay. […] EGFP expression and nuclear morphology were analyzed by fluorescence microscopy. […]
# [2] = test system: dsRed-PPC-1 cells; assay: In vivo survival and growth of pre-treated dsRed-PPC-1 cells injected into SCID mice
# Description: FIG. 16. Decreases in cellular FLIP levels by siRNA diminishes the in vivo survival and growth of circulating prostate cancer cells. (A) Fluorescent dsRed-PPC-1 cells were transfected in culture with anti-FLIP siRNA (siFLIP, 25 nM) or control siRNA (siCtrl, 25 nM). Eight hours after transfection cells were harvested and 3.5×10^6 viable cells were injected into the tail veins of sublethally irradiated SCID mice. Five weeks after injection, or when mice became moribund, mice were sacrificed and their organs imaged using a fluorescent microscope (n=9). Representative images of tumor formation in the lung, bone, and liver are shown. (B) The total number and area of distant tumors from mice described above were quantified using image analysis software. Tumors were quantified from all five lobes of the lungs. Data points represent measurements from each mouse. Differences in the number and area of tumors are significant by the rank sum test. The bar represents the median of the population. Measurements were completed on unaltered images.
# FIG. 17. Decreases in cellular FLIP levels by 5809354 diminishes the in vivo survival and growth of circulating prostate cancer cells. (A) Fluorescent dsRed-PPC-1 cells were treated in culture with 5809354 (30 μM) or buffer control. Sixteen hours after treatment cells were harvested and 3.5×10^6 viable cells were injected into the tail veins of sublethally irradiated SCID mice. Five weeks after injection, or when mice became moribund, mice were sacrificed and their organs imaged using a fluorescent microscope (n=8). Representative images of tumor formation in the lung, bone, and liver are shown. (B) The number and area of distant tumors from mice described above were quantified using image analysis software. Tumors were quantified from all five lobes of the lungs. Data points represent measurements from each mouse. Differences in the number and area of tumors are significant by the rank sum test. […]
# In vivo studies. […] 3.5×10^6 viable cells (as measured by trypan blue exclusion assay) were either injected via the tail vein or subcutaneously into the hind limbs into sublethally irradiated (3.5 Gy) SCID mice (10 mice per treatment). […] Red fluorescent tumors were detected via whole body imaging and whole organ imaging using a Leica MZ FLIII fluorescent stereomicroscope with a 100 W mercury lamp, a 560/40 excitation filter, and a 610 long-pass emission filter. Images were acquired using a Leica DC350 digital camera at 0.8× magnification and analyzed using Image Pro Plus 6.0 (MediaCybernetics). A single common threshold was applied to identify and measure fluorescence in each organ (Cairns et al., 2004). The number of fluorescent spots and the corresponding pixel area were recorded for each lung lobe. All quantification was performed on unmanipulated images. […]
substance,measurement,setting,value
4-(4-chloro-2-methylphenoxy)-N-hydroxybutanamide [compound 5809354],sequence of caspase activation,[1]; suspension conditions,Active caspase 8 was detected prior to activation of caspases 3/7 and 9
same,caspase 8 activation by immunoblot,[1]; suspension versus adherent conditions,preferentially activated caspase 8 in cells cultured under suspension but not adherent conditions
same,Median survival,"[2]; cells treated in culture (5809354 30 μM 16 hours; FLIP siRNA 25 nM 8 hours), injected into tail veins of sublethally irradiated SCID mice",32 days
same,"tumor formation in lung, bone, and liver","[2]; intravenous injection of treated cells, five weeks or when moribund",decreased tumor formation
same,median tumor number and median total tumor area within the lung,"[2]; intravenous injection of treated cells, image-based analysis",decreased
same,tumor weight after subcutaneous injection,"[2]; subcutaneous injection of treated cells, 3 weeks (data not shown)",no difference
